Measured values: the supplement of paper PMC11061612

Experiments:
5-Fluorouracil = compound: O=c1[nH]cc(F)c(=O)[nH]1 [5-Fluorouracil]; conditions: max 20 µM
Outline: (§1)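 Viability was measured with CellTiter-Glo 2.0 luminescence after 72 hours of dosing at a final DMSO of typically 0.2%, and scaled between blank-well and DMSO-well means. Beforehand, cancer cell lines sat 24 hours at 37°C and 5% CO2 in 1536-well plates in 7.5 μl DMEM/F12 or RPMI with 10% FBS. A non-linear mixed effects model fitted two-parameter logistic curves to the dose responses. The single-agent IC50 comes from these fits.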

Gefitinib = compound: COc1cc2ncnc(Nc3ccc(F)c(Cl)c3)c2cc1OCCCN1CCOCC1 [Gefitinib]; conditions: max 10 µM
Outline: as §1

Taselisib = compound: Cc1nc(-c2cn3c(n2)-c2ccc(-c4cnn(C(C)(C)C(N)=O)c4)cc2OCC3)n(C(C)C)n1 [Taselisib]; conditions: max 10 µM
Outline: as §1

AZD5991 = compound: Cc1c2c(nn1C)CSCc1cc(n(C)n1)CSc1cc(c3ccccc3c1)OCCCc1c(C(=O)O)n(C)c3c-2c(Cl)ccc13 [AZD5991]; conditions: max 1 µM
Outline: as §1

Prexasertib = compound: COc1cccc(OCCCN)c1-c1cc(Nc2cnc(C#N)cn2)n[nH]1 [Prexasertib]; conditions: max 1 µM
Outline: as §1

AZD1390 = compound: CC(C)n1c(=O)n(C)c2cnc3cc(F)c(-c4ccc(OCCCN5CCCCC5)nc4)cc3c21 [AZD1390]; conditions: max 0.3 µM
Outline: as §1

AZD5363 = compound: C1CN(CCC1(C(=O)N[C@@H](CCO)C2=CC=C(C=C2)Cl)N)C3=NC=NC4=C3C=CN4 [AZD5363]; conditions: max 10 µM
Outline: as §1

AZD0156 = compound: CN(C)CCCOc1ccc(-c2ccc3ncc4c(c3c2)n(C2CCOCC2)c(=O)n4C)cn1 [AZD0156]; conditions: max 3 µM
Outline: as §1

AZD2811 = compound: CCN(CCO)CCCOc1ccc2c(Nc3cc(CC(=O)Nc4cccc(F)c4)[nH]n3)ncnc2c1 [AZD2811]; conditions: max 1 µM
Outline: as §1

SRA737 = compound: N#Cc1cnc(Nc2cc(NC[C@H]3CNCCO3)c(C(F)(F)F)cn2)cn1 [SRA737]; conditions: max 10 µM
Outline: as §1

[1] = compound: O=C(Nc1ccc2[nH]nc(-c3ccncc3)c2c1)[C@@H]1CCN(CC(=O)N2CCN(c3ccc(-c4ncccn4)cc3)CC2)C1; conditions: max 5 µM
Outline: as §1

Alisertib = compound: COc1cc(Nc2ncc3c(n2)-c2ccc(Cl)cc2C(c2c(F)cccc2OC)=NC3)ccc1C(=O)O [Alisertib]; conditions: max 10 µM
Outline: as §1

AZD1775 = compound: C=CCn1c(=O)c2cnc(Nc3ccc(N4CCN(C)CC4)cc3)nc2n1-c1cccc(C(C)(C)O)n1 [AZD1775]; conditions: max 3 µM
Outline: as §1

AZD4320 = compound: CN(CC[C@H](CSC1=CC=CC=C1)NC2=C(C=C(C=C2)S(=O)(=O)NC(=O)C3=CC=C(C=C3)N4CCC(CC4)[C@H](C5=CC=CC=C5C6=CC=C(C=C6)Cl)O)S(=O)(=O)C(F)(F)F)CCO [AZD4320]; conditions: max 1 µM
Outline: as §1

Gemcitabine = compound: Nc1ccn([C@@H]2O[C@H](CO)[C@@H](O)C2(F)F)c(=O)n1 [Gemcitabine]; conditions: max 0.3 µM
Outline: as §1

Crizotinib = compound: C[C@@H](Oc1cc(-c2cnn(C3CCNCC3)c2)cnc1N)c1c(Cl)ccc(F)c1Cl [Crizotinib]; conditions: max 10 µM
Outline: as §1

Carboplatin = compound: C1CC(C1)(C(=O)[O-])C(=O)[O-].N.N.[Pt+2] [Carboplatin]; conditions: max 10 µM
Outline: as §1

Venetoclax = compound: CC1(C)CCC(CN2CCN(c3ccc(C(=O)NS(=O)(=O)c4ccc(NCC5CCOCC5)c([N+](=O)[O-])c4)c(Oc4cnc5[nH]ccc5c4)c3)CC2)=C(c2ccc(Cl)cc2)C1 [Venetoclax]; conditions: max 1 µM
Outline: as §1

Doxorubicin = compound: COc1cccc2c1C(=O)c1c(O)c3c(c(O)c1C2=O)C[C@@](O)(C(=O)CO)C[C@@H]3O[C@H]1C[C@H](N)[C@H](O)[C@H](C)O1 [Doxorubicin]; conditions: max 1 µM
Outline: as §1

AZD5153 = compound: COc1nnc2ccc(N3CCC(c4ccc(OCCN5CCN(C)C(=O)[C@H]5C)cc4)CC3)nn12 [AZD5153]; conditions: max 1 µM
Outline: as §1

Dasatinib = compound: CC1=C(C(=CC=C1)Cl)NC(=O)C2=CN=C(S2)NC3=CC(=NC(=N3)C)N4CCN(CC4)CCO [Dasatinib]; conditions: max 2 µM
Outline: as §1

SN-38 = compound: CCc1c2c(nc3ccc(O)cc13)-c1cc3c(c(=O)n1C2)COC(=O)[C@]3(O)CC [SN-38]; conditions: max 0.3 µM
Outline: as §1

Lapatinib = compound: CS(=O)(=O)CCNCc1ccc(-c2ccc3ncnc(Nc4ccc(OCc5cccc(F)c5)c(Cl)c4)c3c2)o1 [Lapatinib]; conditions: max 10 µM
Outline: as §1

Olaparib = compound: O=C(c1cc(Cc2n[nH]c(=O)c3ccccc23)ccc1F)N1CCN(C(=O)C2CC2)CC1 [Olaparib]; conditions: max 10 µM
Outline: as §1

Selumetinib = compound: Cn1cnc2c(F)c(Nc3ccc(Br)cc3Cl)c(C(=O)NOCCO)cc21 [Selumetinib]; conditions: max 10 µM
Outline: as §1

Paclitaxel = compound: CC(=O)O[C@H]1C(=O)[C@@]2(C)[C@H]([C@H](OC(=O)c3ccccc3)[C@]3(O)C[C@H](OC(=O)[C@H](O)[C@@H](NC(=O)c4ccccc4)c4ccccc4)C(C)=C1C3(C)C)[C@]1(OC(C)=O)CO[C@@H]1C[C@@H]2O [Paclitaxel]; conditions: max 3 µM
Outline: as §1

MK-2206 = compound: NC1(c2ccc(-c3nc4ccn5c(=O)[nH]nc5c4cc3-c3ccccc3)cc2)CCC1 [MK-2206]; conditions: max 10 µM
Outline: as §1

Palbociclib = compound: CC(=O)c1c(C)c2cnc(Nc3ccc(N4CCNCC4)cn3)nc2n(C2CCCC2)c1=O [Palbociclib]; conditions: max 10 µM
Outline: as §1

SG3199 = compound: CC1=CN2[C@@H](C1)C=NC3=CC(=C(C=C3C2=O)OC)OCCCCCOC4=C(C=C5C(=C4)N=C[C@@H]6CC(=CN6C5=O)C)OC [SG3199]; conditions: max 0.001 µM
Outline: as §1

Savolitinib = compound: C[C@@H](c1ccc2nccn2c1)n1nnc2ncc(-c3cnn(C)c3)nc21 [Savolitinib]; conditions: max 1 µM
Outline: as §1

AZD6738 = compound: C[C@@H]1COCCN1C2=NC(=NC(=C2)C3(CC3)[S@](=N)(=O)C)C4=C5C=CNC5=NC=C4 [AZD6738]; conditions: max 10 µM
Outline: as §1

Trametinib = compound: CC(=O)Nc1cccc(-n2c(=O)n(C3CC3)c(=O)c3c(Nc4ccc(I)cc4F)n(C)c(=O)c(C)c32)c1 [Trametinib]; conditions: max 1 µM
Outline: as §1

AZD8186 = compound: C[C@@H](Nc1cc(F)cc(F)c1)c1cc(C(=O)N(C)C)cc2c(=O)cc(N3CCOCC3)oc12 [AZD8186]; conditions: max 10 µM
Outline: as §1

Etoposide = compound: COc1cc([C@@H]2c3cc4c(cc3[C@@H](O[C@@H]3O[C@@H]5CO[C@@H](C)O[C@H]5[C@H](O)[C@H]3O)[C@H]3COC(=O)[C@H]23)OCO4)cc(OC)c1O [Etoposide]; conditions: max 10 µM
Outline: as §1

AZD7648 = compound: Cc1cc2ncnn2cc1Nc1ncc2c(n1)n(C1CCOCC1)c(=O)n2C [AZD7648]; conditions: max 10 µM
Outline: as §1

Cell Line	IC50, cell viability 72 h (5-Fluorouracil) [µM]	IC50, cell viability 72 h (Gefitinib) [µM]	IC50, cell viability 72 h (Taselisib) [µM]	IC50, cell viability 72 h (AZD5991) [µM]	IC50, cell viability 72 h (Prexasertib) [µM]	IC50, cell viability 72 h (AZD1390) [µM]	IC50, cell viability 72 h (AZD5363) [µM]	IC50, cell viability 72 h (AZD0156) [µM]	IC50, cell viability 72 h (AZD2811) [µM]	IC50, cell viability 72 h (SRA737) [µM]	IC50, cell viability 72 h [1] [µM]	IC50, cell viability 72 h (Alisertib) [µM]	IC50, cell viability 72 h (AZD1775) [µM]	IC50, cell viability 72 h (AZD4320) [µM]	IC50, cell viability 72 h (Gemcitabine) [µM]	IC50, cell viability 72 h (Crizotinib) [µM]	IC50, cell viability 72 h (Carboplatin) [µM]	IC50, cell viability 72 h (Venetoclax) [µM]	IC50, cell viability 72 h (Doxorubicin) [µM]	IC50, cell viability 72 h (AZD5153) [µM]	IC50, cell viability 72 h (Dasatinib) [µM]	IC50, cell viability 72 h (SN-38) [µM]	IC50, cell viability 72 h (Lapatinib) [µM]	IC50, cell viability 72 h (Olaparib) [µM]	IC50, cell viability 72 h (Selumetinib) [µM]	IC50, cell viability 72 h (Paclitaxel) [µM]	IC50, cell viability 72 h (MK-2206) [µM]	IC50, cell viability 72 h (Palbociclib) [µM]	IC50, cell viability 72 h (SG3199) [µM]	IC50, cell viability 72 h (Savolitinib) [µM]	IC50, cell viability 72 h (AZD6738) [µM]	IC50, cell viability 72 h (Trametinib) [µM]	IC50, cell viability 72 h (AZD8186) [µM]	IC50, cell viability 72 h (Etoposide) [µM]	IC50, cell viability 72 h (AZD7648) [µM]
KARPAS-1106P (B-Cell Non-Hodgkin's Lymphoma)	> 20	> 10	0.462	0.127	0.0112	> 0.3	> 10	> 3	> 1	2.18	> 5	> 10	0.495	> 1	0.0183	4	> 10	> 1	0.146	0.132	0.213	0.00305	> 10	> 10	> 10	0.134	> 10	> 10	> 0.001	> 1	3.96	> 1	0.705	1.79	> 10
KATOIII (Gastric Carcinoma)	14.3	> 10	> 10	> 1	0.42	> 0.3	> 10	> 3	> 1	> 10	4.46	1.79	> 3	> 1	> 0.3	> 10	> 10	> 1	> 1	> 1	> 2	> 0.3	> 10	> 10	> 10	> 3	> 10	> 10	> 0.001	> 1	> 10	0.893	> 10	> 10	> 10
LS-513 (Colorectal Carcinoma)	7.25	> 10	1.3	> 1	0.087	> 0.3	> 10	> 3	> 1	6.76	0.304	1.45	0.789	> 1	0.0282	4.09	> 10	> 1	> 1	0.334	> 2	0.0426	4.21	> 10	0.419	0.07	2.31	4.87	> 0.001	> 1	2.76	0.00366	> 10	> 10	> 10
MDA-MB-157 (Breast Carcinoma)	10.6	> 10	> 10	0.457	0.01	> 0.3	> 10	> 3	> 1	1.23	> 5	> 10	0.973	> 1	0.213	> 10	> 10	> 1	> 1	0.398	> 2	0.0626	> 10	> 10	> 10	0.132	> 10	> 10	> 0.001	> 1	0.926	> 1	> 10	8.86	> 10
MDA-MB-231 (Breast Carcinoma)	> 20	> 10	> 10	> 1	0.173	> 0.3	> 10	> 3	> 1	> 10	1.91	> 10	> 3	> 1	0.184	> 10	> 10	> 1	0.592	0.374	1.9	0.109	> 10	> 10	9.41	0.456	> 10	> 10	> 0.001	> 1	9.53	0.204	> 10	> 10	> 10
